Several values for one entry are separate records, joined by “and”; a condition that tells them apart may be missing. Identical values can stand only once. Inconclusive results and toxic doses are left out.
Test system: nude mice, LOX melanoma ip, survival T/C
Test: NCI In Vivo Anticancer Drug Screen. Data for tumor model Human Amelanotic Melanoma (LOX) (intraperitoneal) in NU/NU BALB/C (nude) mice
Settings: endpoint: median survival time, higher = longer survival
Protocol: The antitumor activity of compounds was measured in mice bearing transplantable tumors. Survival or tumor size were measured and the results are expressed as the measurement made in the treated group (T) divided by the measurement made in the vehicle treated control group (C). The tumor model used in this assay is Human Amelanotic Melanoma (LOX) (intraperitoneal) in NU/NU BALB/C (nude) mice

[1] = dose: 25.0 mg/kg/injection, schedule: Q04DX003 (ip), vehicle: saline with Tween-80
[2] = dose: 50.0 mg/kg/injection, schedule: Q04DX003 (ip), vehicle: saline with Tween-80
[3] = dose: 100.0 mg/kg/injection, schedule: Q04DX003 (ip), vehicle: saline with Tween-80
[4] = dose: 200.0 mg/kg/injection, schedule: Q04DX003 (ip), vehicle: saline with Tween-80

## CCCCN1C(=O)N(c2ccc(OCC)cc2)C2N(CCCC)C1C(C)(C)C2(C)C (stereo not drawn)
dose: 15.0 mg/kg/injection, schedule: Q04DX003 (ip), vehicle: saline with Tween-80
  T/C: 101 % of control
dose: 30.0 mg/kg/injection, schedule: Q04DX003 (ip), vehicle: saline with Tween-80
  T/C: 107 % of control
dose: 60.0 mg/kg/injection, schedule: Q04DX003 (ip), vehicle: saline with Tween-80
  T/C: 101 % of control and 102 % of control
dose: 120.0 mg/kg/injection, schedule: Q04DX003 (ip), vehicle: saline with Tween-80
  T/C: 101 % of control
dose: 240.0 mg/kg/injection, schedule: Q04DX003 (ip), vehicle: saline with Tween-80
  T/C: 98 % of control

## CC(=O)NO
dose: 75.0 mg/kg/injection, schedule: Q04DX003 (ip), vehicle: water
  T/C: 101 % of control
dose: 150.0 mg/kg/injection, schedule: Q04DX003 (ip), vehicle: water
  T/C: 101 % of control
dose: 300.0 mg/kg/injection, schedule: Q04DX003 (ip), vehicle: water
  T/C: 103 % of control
dose: 600.0 mg/kg/injection, schedule: Q04DX003 (ip), vehicle: water
  T/C: 103 % of control
dose: 1200.0 mg/kg/injection, schedule: Q04DX003 (ip), vehicle: water
  T/C: 92 % of control

## CCCCCCSc1nc(COC(=O)NC)c(COC(=O)NC)n1C
dose: 16.85 mg/kg/injection, schedule: Q04DX003 (ip), vehicle: saline
  T/C: 102 % of control
dose: 33.7 mg/kg/injection, schedule: Q04DX003 (ip), vehicle: saline
  T/C: 90 % of control
dose: 67.5 mg/kg/injection, schedule: Q04DX003 (ip), vehicle: saline
  T/C: 93 % of control
dose: 135.0 mg/kg/injection, schedule: Q04DX003 (ip), vehicle: saline
  T/C: 107 % of control
dose: 270.0 mg/kg/injection, schedule: Q04DX003 (ip), vehicle: saline
  T/C: 123 % of control

## O=c1[nH]cnc2c1nnn2C1OC(CO)C(O)C1O (stereo not drawn)
dose: 180.0 mg/kg/injection, schedule: Q04DX003 (ip), vehicle: suspension in saline
  T/C: 123 % of control
dose: 833.0 mg/kg/injection, schedule: Q04DX003 (ip), vehicle: suspension in saline
  T/C: 153 % of control

## CC1Oc2cc3c(-c4c(O)cc(O)c5c(O)c6c(cc45)OC(C)C(C)C6=O)c(O)cc(O)c3c(O)c2C(=O)C1C (stereo not drawn)
dose: 1.0 mg/kg/injection, schedule: Q04DX003 (ip), vehicle: suspension in saline
  T/C: 124 % of control
dose: 4.0 mg/kg/injection, schedule: Q04DX003 (ip), vehicle: suspension in saline
  T/C: 152 % of control

## c1ccc([Te][Te]c2ccccc2)cc1
dose: 37.5 mg/kg/injection, schedule: Q04DX003 (ip), vehicle: saline with Tween-80
  T/C: 102 % of control
dose: 75.0 mg/kg/injection, schedule: Q04DX003 (ip), vehicle: saline with Tween-80
  T/C: 92 % of control
dose: 150.0 mg/kg/injection, schedule: Q04DX003 (ip), vehicle: saline with Tween-80
  T/C: 112 % of control

## Cc1ccc(C(=Nc2ccccc2)N=P(c2ccccc2)(c2ccccc2)c2ccccc2)cc1
dose: 12.5 mg/kg/injection, schedule: Q04DX003 (ip), vehicle: saline with Tween-80
  T/C: 106 % of control
[1]
  T/C: 115 % of control
[2]
  T/C: 119 % of control
[3]
  T/C: 104 % of control

## CCC(=O)Sc1ccccc1C(=O)Nc1ccc(Cl)cc1
[1]
  T/C: 99 % of control
[2]
  T/C: 107 % of control
[3]
  T/C: 110 % of control
[4]
  T/C: 113 % of control

## CCCCCC1c2cc(O)ccc2OC1N1CCOCC1 (stereo not drawn)
[1]
  T/C: 111 % of control
[2]
  T/C: 100 % of control
[4]
  T/C: 86 % of control

## N#Cc1c(-c2ccc(F)cc2)c(-c2ccc(F)cc2)nn(CCO)c1=O
dose: 12.5 mg/kg/injection, schedule: Q04DX003 (ip), vehicle: distilled water + Tween-80
  T/C: 98 % of control
dose: 25.0 mg/kg/injection, schedule: Q04DX003 (ip), vehicle: distilled water + Tween-80
  T/C: 111 % of control
dose: 50.0 mg/kg/injection, schedule: Q04DX003 (ip), vehicle: distilled water + Tween-80
  T/C: 115 % of control
dose: 72.0 mg/kg/injection, schedule: Q04DX003 (ip), vehicle: distilled water + Tween-80
  T/C: 110 % of control
dose: 100.0 mg/kg/injection, schedule: Q04DX003 (ip), vehicle: distilled water + Tween-80
  T/C: 122 % of control
dose: 120.0 mg/kg/injection, schedule: Q04DX003 (ip), vehicle: distilled water + Tween-80
  T/C: 124 % of control
dose: 200.0 mg/kg/injection, schedule: Q04DX003 (ip), vehicle: distilled water + Tween-80
  T/C: 120 % of control
dose: 333.33 mg/kg/injection, schedule: Q04DX003 (ip), vehicle: distilled water + Tween-80
  T/C: 166 % of control
dose: 555.55 mg/kg/injection, schedule: Q04DX003 (ip), vehicle: distilled water + Tween-80
  T/C: 212 % of control

## N/C(=N/N=C/c1cc(Br)cc(Br)c1O)NO
dose: 25.0 mg/kg/injection, schedule: Q04DX003 (ip), vehicle: suspension in saline
  T/C: 98 % of control
dose: 50.0 mg/kg/injection, schedule: Q04DX003 (ip), vehicle: suspension in saline
  T/C: 96 % of control
dose: 100.0 mg/kg/injection, schedule: Q04DX003 (ip), vehicle: suspension in saline
  T/C: 86 % of control

## O=CC(O)C(O)C(O)C(O)CO (stereo not drawn)
dose: 75.0 mg/kg/injection, schedule: Q04DX003 (ip), vehicle: saline
  T/C: 112 % of control and 99 % of control
dose: 150.0 mg/kg/injection, schedule: Q04DX003 (ip), vehicle: saline
  T/C: 107 % of control and 98 % of control
dose: 300.0 mg/kg/injection, schedule: Q04DX003 (ip), vehicle: saline
  T/C: 102 % of control and 106 % of control
dose: 600.0 mg/kg/injection, schedule: Q04DX003 (ip), vehicle: saline
  T/C: 95 % of control
dose: 1200.0 mg/kg/injection, schedule: Q04DX003 (ip), vehicle: saline
  T/C: 98 % of control and 99 % of control

## COc1cccc2c1[C@H]1CO[C@H]3C4C[C@H](C(=O)O)C([C@@H](C2)N13)N4C (stereo partly drawn)
dose: 0.62 mg/kg/injection, schedule: Q04DX003 (ip), vehicle: water
  T/C: 121 % of control
dose: 1.25 mg/kg/injection, schedule: Q04DX003 (ip), vehicle: water
  T/C: 121 % of control
dose: 5.0 mg/kg/injection, schedule: Q04DX003 (ip), vehicle: water
  T/C: 196 % of control
dose: 10.0 mg/kg/injection, schedule: Q04DX003 (ip), vehicle: water
  T/C: 152 % of control
dose: 20.0 mg/kg/injection, schedule: Q04DX003 (ip), vehicle: water
  T/C: 177 % of control

## COc1cc(C2=NCCc3cc4c(cc32)OCO4)cc(OC)c1OC
dose: 18.75 mg/kg/injection, schedule: Q04DX003 (ip), vehicle: saline + alcohol
  T/C: 114 % of control
dose: 37.5 mg/kg/injection, schedule: Q04DX003 (ip), vehicle: saline + alcohol
  T/C: 115 % of control
dose: 75.0 mg/kg/injection, schedule: Q04DX003 (ip), vehicle: saline + alcohol
  T/C: 110 % of control
dose: 150.0 mg/kg/injection, schedule: Q04DX003 (ip), vehicle: saline + alcohol
  T/C: 115 % of control

## CCOC(=O)Nc1cc2c(c(N)n1)N=C(c1ccc3ccccc3c1)CN2
dose: 14.4 mg/kg/injection, schedule: Q04DX003 (ip), vehicle: saline with Tween-80
  T/C: 100 % of control
dose: 24.0 mg/kg/injection, schedule: Q04DX003 (ip), vehicle: saline with Tween-80
  T/C: 123 % of control
dose: 40.0 mg/kg/injection, schedule: Q04DX003 (ip), vehicle: saline with Tween-80
  T/C: 103 % of control and 112 % of control
dose: 66.66 mg/kg/injection, schedule: Q04DX003 (ip), vehicle: saline with Tween-80
  T/C: 109 % of control
dose: 67.0 mg/kg/injection, schedule: Q04DX003 (ip), vehicle: saline with Tween-80
  T/C: 111 % of control
dose: 111.0 mg/kg/injection, schedule: Q04DX003 (ip), vehicle: saline with Tween-80
  T/C: 112 % of control
dose: 185.0 mg/kg/injection, schedule: Q04DX003 (ip), vehicle: saline with Tween-80
  T/C: 122 % of control

## Nc1ccc(S(=O)(=O)Nc2cnc3c(Cl)cccc3n2)cc1
dose: 89.1 mg/kg/injection, schedule: Q06HX002 (ip), vehicle: other
  T/C: 103 % of control
dose: 133.5 mg/kg/injection, schedule: Q01DX001 (ip), vehicle: other
  T/C: 88 % of control
dose: 133.5 mg/kg/injection, schedule: Q01DX005 (ip), vehicle: other
  T/C: 109 % of control
dose: 133.5 mg/kg/injection, schedule: Q06HX002 (ip), vehicle: other
  T/C: 103 % of control
dose: 200.2 mg/kg/injection, schedule: Q01DX001 (ip), vehicle: other
  T/C: 98 % of control
dose: 200.2 mg/kg/injection, schedule: Q01DX005 (ip), vehicle: other
  T/C: 114 % of control
dose: 200.2 mg/kg/injection, schedule: Q06HX002 (ip), vehicle: other
  T/C: 114 % of control
dose: 300.2 mg/kg/injection, schedule: Q01DX001 (ip), vehicle: other
  T/C: 104 % of control
dose: 300.2 mg/kg/injection, schedule: Q01DX005 (ip), vehicle: other
  T/C: 116 % of control
dose: 300.2 mg/kg/injection, schedule: Q06HX002 (ip), vehicle: other
  T/C: 111 % of control
dose: 450.0 mg/kg/injection, schedule: Q01DX001 (ip), vehicle: other
  T/C: 110 % of control
dose: 674.7 mg/kg/injection, schedule: Q01DX001 (ip), vehicle: other
  T/C: 119 % of control
